Assays:
[1] = Dynamic Vapour Sorption (DVS) with XRPD re-analysis; format: physicochemical
Procedure: Dynamic Vapour Sorption (DVS) was performed on a DVS-1 dynamic vapour sorption balance by Surface Measurement Systems. Approximately 10-20 mg of sample was loaded into a wire mesh vapour sorption balance pan of the balance. The sample was subjected to a ramping profile from 20-90% relative humidity (RH) in 10% increments, maintaining the sample at each step until a stable weight had been achieved (99.5% step completion) or 1000 minutes had elapsed. After completion of the sorption cycle, the sample was dried using the same procedure, but all the way down to 0% RH and finally taken back to the starting point of 20% RH. The weight change during the sorption/desorption cycles were plotted, allowing for the hygroscopic nature of the sample to be determined. Following the DVS analysis, the solid was re-analysed by XRPD in order to determine whether there had been any change in physical form.

[2] = Solid form stability in slurries; format: physicochemical; details: slurries at high temperature

- water sorption at 90% RH ([1]; DVS, 90% RH): 0.33%
- XRPD analysis following DVS (change in physical form) ([1]; after DVS sorption/desorption cycle): no change in form
- hygroscopicity (DVS) ([1]; judged from water sorption at 90% RH): non-hygroscopic
SMILES: O=C(O)CNC(=O)c1ncc(-c2cccc(Cl)c2)cc1O [Form B, {[5-(3-chlorophenyl)-3-hydroxypyridine-2-carbonyl]amino}acetic acid]
- solid form stability [2]: metastable and can convert to Form A in slurries at high temperature
